Experimental data: patent publication US20120028288A1, “Method for Measuring Cell Motility and System Therefor” (priority 2005, published 2012)
Entries after “also recorded” stand apart in the source; their conditions may differ.

Experiments:
[1] = test system: eosinophils from normal, allergy/atopy and asthma patient donors; assay: Chemotaxis analysis of eosinophils of allergy/atopy and asthma patients compared with normal subjects (TAXIScan; VD plot, CRT and CLT analysis)
[2] = test system: eosinophils obtained from blood samples of normal subjects; assay: Eosinophil chemotactic experiment toward various chemotactic factors (time-lapse tracking; VD plot, CRT and CLT analysis); conditions: for rate of cells having a high specific motility in the concentration gradient direction in the VD plot / Chemotaxis Lifetime (CLT) / migration duration time, in words / Chemotactic Response Time (CRT) / time course of migration start, in words: normal subject eosinophils; for rate of cells having a high specific motility in the concentration gradient direction in the VD plot: CCL3, CCL5 5 μM, CXCL12, fMLP, PGD2 1 μM, vs control without factor (N.C.); for Chemotaxis Lifetime (CLT) / migration duration time, in words / Chemotactic Response Time (CRT) / time course of migration start, in words: concentration gradient of factor; for Chemotactic Response Time (CRT) / time course of migration start, in words: ACR viewed at 5 and 45 minutes
Protocol: Blood samples were obtained from patients and normal subjects, after a confirmation of informed consent. The blood samples were subjected to hemolytic reaction by water treatment and centrifugal separation, repeated twice, and thereafter a magnetic cell separation method was conducted so as to separate eosinophil therefrom. MACS (Miltenyi Biotec GmbH, Germany) was used for the magnetic cell separation, and the separation was performed by the negative selection method using anti-human CD3, CD14, CD16, and CD19 antibody-labeled paramagnetic microbeads. The magnetic cell separation method was conducted pursuant to the manual of Miltenyi Biotec GmbH. The cells obtained were washed with PBS, and thereafter suspended in RPMI-HEPES culture medium containing 1% FCS at the concentration of 5×10^6 cells/ml, and used for the subsequent experiment.
Structural setting of the system and the measuring method were carried out according to the aforementioned procedure.
In the measurement, the observation support unit of the system was filled up with RPMI-HEPES medium containing 1% FCS, and maintained at 37° C. to have the cells and the chemotactic factor being injected, and thereafter, the state of the cells was subjected to the time-lapse imaging. […] Imaging was performed at time-lapse intervals of one minute, and twelve samples at the maximum per one holder were subjected to the imaging in parallel.
The aforementioned program was used for the identification and tracking of the cell. […] With this software, when a user highlighted an area in the image as an analysis target, the cells in the area were identified and tracking was executed. Automatic cell tracking was performed according to the following procedure; a positional change in the time-lapse image was corrected, and then a position of the cell being the closest in the adjacent time-frame photo was sequentially designated and stored. Since an error might be included in the automatic cell tracking, the migratory pathway of the cell being obtained was appropriately corrected based on a visual judgment by a human. […] According to the obtained migratory pathway information of the cells, one by one, time-series data such as the position, velocity, and directionality of the cells was acquired. In order to avoid exerting an effect of artificial bias on the data, a third person, who was not informed of the details of the experiment, conducted the cell identification and tracking works by using the present software.
VD plot (Velocity-Direction plot) was obtained by calculating median values, as to the values of the time-series data of the velocity and directionality of individual cells, plotting the median value of velocity on the vertical axis and the median value of directionality on the horizontal axis. A gate was set on the graph surface, indicating an index of the cellular chemotaxis, and a rate of the cells included in the gate was obtained. Mann-Whitney U-test was employed for a difference test concerning the rate of the cells.
In the calculation of Chemotactic Response Time (CRT) and of Chemotaxis Lifetime (CLT) of the cell, an Exponential Moving Average (EMA) was calculated based on time-series data of the cell migration velocity, and the cellular chemotaxis was defined by the state where the value of EMA exceeded a certain threshold. In other words, CRT was a time period from start of the measurement until the time when the EMA firstly exceeded the threshold, and an elapsed time from the time when EMA firstly exceeded the threshold until it fell below the threshold was CLT.

| Molecule | rate of cells that continued migration for five minutes or more (CLT analysis), patients compared to normal subjects ([1]; allergy/atopy patients and asthma patients vs normal subjects) | cell motility from VD plot, asthma patients (III) compared to normal subject (I) ([1]; eosinophils of asthma patients, PGD2 or fMLP 1 μM gradient) | CRT analysis: difference between patient groups and normal subjects ([1]; groups I, II, III) | rate of cells having a high specific motility in the concentration gradient direction in the VD plot [2] | Chemotaxis Lifetime (CLT) / migration duration time, in words [2] | Chemotactic Response Time (CRT) / time course of migration start, in words [2] | share of eosinophils that migrated according to the CRT analysis ([2]; normal subjects) |
| --- | --- | --- | --- | --- | --- | --- | --- |
| CSCC[C@H](NC=O)C(=O)N[C@@H](CC(C)C)C(=O)N[C@@H](Cc1ccccc1)C(=O)O [fMLP, N-formyl-methionyl-leucyl-phenylalanine] | not found a significant difference | significant difference | not a large difference | little difference from the control | most of the cells stopped migration within 15 minutes; also recorded: relatively shorter than the other factors | started moving gradually as time advanced | about half |
| CCL3: Recombinant Human MIP-1 alpha (CCL3; Macrophage Inflammatory Protein-1 alpha), purchased from PeproTech (protein, UniProt P10147 24-92, looked up) C-C motif chemokine 3: SLAADTPTACCFSYTSRQIPQNFIADYFETSSQCSKPGVIFLTKRSRQVCADPSEEWVQKYVSDLELSA |  |  |  | high motility | short relative to CCL5 or CXCL12 | started moving gradually as time advanced |  |
| CCL5: Recombinant Human RANTES (CCL5; Regulation upon Activation Normal T cell Express Sequence), purchased from PeproTech (protein, UniProt P13501 24-91, looked up) C-C motif chemokine 5: SPYSSDTTPCCFAYIARPLPRAHIKEYFYTSGKCSNPAVVFVTRKNRQVCANPEKKWVREYINSLEMS |  |  |  | little difference from the control | long lifetime tendency | hardly started migration; also recorded: turned up gradually after lapse of approximately one hour |  |
